Measured values taken from patent publication US20230266302A1, “SYNTHESIS AND USE OF N-BENZYL SULFONAMIDES” (THE UNIVERSITY OF TULSA, priority 2020, published 2023).

Each compound was assayed on HDF (normal cells) (assay: ATP level assay (CellTiter-Glo), percent of control). Settings: 2 h; compound alone, 100 uM, two hour incubation, control DMSO; read-out: POC (percent of control) HDF.
Type: cell-based

For `Cc1ccc(S(=O)(=O)NCc2ccc3ncccc3c2)cc1` [Compound 22, 4-methyl-N-(quinolin-6-ylmethyl)benzenesulfonamide], which activity at 100 µM is on record?
Its activity at 100 µM is 89.7%.

Same assay, conditions: compound 100 uM + 2DG (about 10-20 mM), two hour incubation

How did the “POC (percent of control) HDF” value turn out when `Cc1ccc(S(=O)(=O)NCc2ccc3ncccc3c2)cc1` [Compound 22, 4-methyl-N-(quinolin-6-ylmethyl)benzenesulfonamide] was run?
The value was 76.3% of control.

Same assay, conditions: compound 100 uM + rotenone (approximately 1.25 μM), two hour incubation

Which “POC (percent of control) HDF” value does the source give for `Cc1ccc(S(=O)(=O)NCc2ccc3ncccc3c2)cc1` [Compound 22, 4-methyl-N-(quinolin-6-ylmethyl)benzenesulfonamide] here?
The value was 85.5% of control.

What follows are compounds tested on T47D (breast cancer) in the same assay as above. Settings: Homo sapiens, T47D, 2 h; compound alone, 100 uM, two hour incubation, control DMSO; read-out: POC (percent of control) T47D.
Type: cell-based

How did the activity at 100 µM turn out when `Cc1ccc(S(=O)(=O)NCc2ccc3ncccc3c2)cc1` [Compound 22, 4-methyl-N-(quinolin-6-ylmethyl)benzenesulfonamide] was run?
Its activity at 100 µM is 85.3%.

Same assay, conditions: compound 100 uM + 2DG (about 10-20 mM), two hour incubation

Which “POC (percent of control) T47D” value does the source give for `Cc1ccc(S(=O)(=O)NCc2ccc3ncccc3c2)cc1` [Compound 22, 4-methyl-N-(quinolin-6-ylmethyl)benzenesulfonamide] here?
Its value is 62.5% of control.

Same assay, conditions: compound 100 uM + rotenone (approximately 1.25 μM), two hour incubation

For `Cc1ccc(S(=O)(=O)NCc2ccc3ncccc3c2)cc1` [Compound 22, 4-methyl-N-(quinolin-6-ylmethyl)benzenesulfonamide], which “POC (percent of control) T47D” value is on record?
Its value is 109.3% of control.

These compounds were tested on HeLa (cervical cancer) in the same assay as above. Settings: Homo sapiens, HeLa, 2 h; compound alone, 100 uM, two hour incubation, control DMSO; read-out: POC (percent of control) HeLa.
Type: cell-based

`Cc1ccc(S(=O)(=O)NCc2ccc3ncccc3c2)cc1` [Compound 22, 4-methyl-N-(quinolin-6-ylmethyl)benzenesulfonamide] was tested. Which activity at 100 µM did it give?
The activity at 100 µM was 101%.

Same assay, conditions: compound 100 uM + 2DG (about 10-20 mM), two hour incubation

With `Cc1ccc(S(=O)(=O)NCc2ccc3ncccc3c2)cc1` [Compound 22, 4-methyl-N-(quinolin-6-ylmethyl)benzenesulfonamide] as the compound, how does the “POC (percent of control) HeLa” value read?
The value was 94.5% of control.

Same assay, conditions: compound 100 uM + rotenone (approximately 1.25 μM), two hour incubation

`Cc1ccc(S(=O)(=O)NCc2ccc3ncccc3c2)cc1` [Compound 22, 4-methyl-N-(quinolin-6-ylmethyl)benzenesulfonamide] was tested. Which “POC (percent of control) HeLa” value did it give?
Its value is 105.2% of control.

The compounds below were run on NCI-H196 (lung cancer) in the same assay as above. Settings: NCI-H196, 2 h; compound alone, 100 uM, two hour incubation, control DMSO; read-out: POC (percent of control) NCI-H196.
Type: cell-based

With `Cc1ccc(S(=O)(=O)NCc2ccc3ncccc3c2)cc1` [Compound 22, 4-methyl-N-(quinolin-6-ylmethyl)benzenesulfonamide] as the compound, how does the activity at 100 µM read?
The activity at 100 µM was 117%.

Same assay, conditions: compound 100 uM + 2DG (about 10-20 mM), two hour incubation

How did the “POC (percent of control) NCI-H196” value turn out when `Cc1ccc(S(=O)(=O)NCc2ccc3ncccc3c2)cc1` [Compound 22, 4-methyl-N-(quinolin-6-ylmethyl)benzenesulfonamide] was run?
The value was 94.6% of control.

Same assay, conditions: compound 100 uM + rotenone (approximately 1.25 μM), two hour incubation

With `Cc1ccc(S(=O)(=O)NCc2ccc3ncccc3c2)cc1` [Compound 22, 4-methyl-N-(quinolin-6-ylmethyl)benzenesulfonamide] as the compound, how does the “POC (percent of control) NCI-H196” value read?
The value was 94.2% of control.

These compounds were tested on H293 (kidney cancer) in the same assay as above. Settings: 2 h; compound alone, 100 uM, two hour incubation, control DMSO; read-out: POC (percent of control) H293.
Type: cell-based

Which activity at 100 µM does the source give for `Cc1ccc(S(=O)(=O)NCc2ccc3ncccc3c2)cc1` [Compound 22, 4-methyl-N-(quinolin-6-ylmethyl)benzenesulfonamide] here?
Its activity at 100 µM is 122%.

Same assay, conditions: compound 100 uM + 2DG (about 10-20 mM), two hour incubation

Which “POC (percent of control) H293” value does the source give for `Cc1ccc(S(=O)(=O)NCc2ccc3ncccc3c2)cc1` [Compound 22, 4-methyl-N-(quinolin-6-ylmethyl)benzenesulfonamide] here?
Its value is 69.9% of control.

Same assay, conditions: compound 100 uM + rotenone (approximately 1.25 μM), two hour incubation

`Cc1ccc(S(=O)(=O)NCc2ccc3ncccc3c2)cc1` [Compound 22, 4-methyl-N-(quinolin-6-ylmethyl)benzenesulfonamide] was tested. Which “POC (percent of control) H293” value did it give?
The value was 90.9% of control.

The compounds below were run on SkBr3 (breast cancer) in the same assay as above. Settings: Homo sapiens, SK-BR-3, 2 h; compound alone, 100 uM, two hour incubation, control DMSO; read-out: POC (percent of control) SkBr3.
Type: cell-based

How did the activity at 100 µM turn out when `Cc1ccc(S(=O)(=O)NCc2ccc3ncccc3c2)cc1` [Compound 22, 4-methyl-N-(quinolin-6-ylmethyl)benzenesulfonamide] was run?
Its activity at 100 µM is 106%.

Same assay, conditions: compound 100 uM + 2DG (about 10-20 mM), two hour incubation

`Cc1ccc(S(=O)(=O)NCc2ccc3ncccc3c2)cc1` [Compound 22, 4-methyl-N-(quinolin-6-ylmethyl)benzenesulfonamide] was tested. Which “POC (percent of control) SkBr3” value did it give?
Its value is 83.5% of control.

Same assay, conditions: compound 100 uM + rotenone (approximately 1.25 μM), two hour incubation

For `Cc1ccc(S(=O)(=O)NCc2ccc3ncccc3c2)cc1` [Compound 22, 4-methyl-N-(quinolin-6-ylmethyl)benzenesulfonamide], which “POC (percent of control) SkBr3” value is on record?
The value was 93.5% of control.

The compounds below were run on MCF7 (breast cancer) in the same assay as above. Settings: Homo sapiens, MCF7, 2 h; compound alone, 100 uM, two hour incubation, control DMSO; read-out: POC (percent of control) MCF7.
Type: cell-based

`Cc1ccc(S(=O)(=O)NCc2ccc3ncccc3c2)cc1` [Compound 22, 4-methyl-N-(quinolin-6-ylmethyl)benzenesulfonamide] was tested. Which activity at 100 µM did it give?
Its activity at 100 µM is 113%.

Same assay, conditions: compound 100 uM + 2DG (about 10-20 mM), two hour incubation

With `Cc1ccc(S(=O)(=O)NCc2ccc3ncccc3c2)cc1` [Compound 22, 4-methyl-N-(quinolin-6-ylmethyl)benzenesulfonamide] as the compound, how does the “POC (percent of control) MCF7” value read?
Its value is 107.1% of control.

Same assay, conditions: compound 100 uM + rotenone (approximately 1.25 μM), two hour incubation

How did the “POC (percent of control) MCF7” value turn out when `Cc1ccc(S(=O)(=O)NCc2ccc3ncccc3c2)cc1` [Compound 22, 4-methyl-N-(quinolin-6-ylmethyl)benzenesulfonamide] was run?
The value was 96.4% of control.

These compounds were tested on BxPC3 (pancreatic cancer) in the same assay as above. Settings: Homo sapiens, BXPC-3, 2 h; compound alone, 100 uM, two hour incubation, control DMSO; read-out: POC (percent of control) BxPC3.
Type: cell-based

Which activity at 100 µM does the source give for `Cc1ccc(S(=O)(=O)NCc2ccc3ncccc3c2)cc1` [Compound 22, 4-methyl-N-(quinolin-6-ylmethyl)benzenesulfonamide] here?
The activity at 100 µM was 99.1%.

Same assay, conditions: compound 100 uM + rotenone (approximately 1.25 μM), two hour incubation

How did the “POC (percent of control) BxPC3” value turn out when `Cc1ccc(S(=O)(=O)NCc2ccc3ncccc3c2)cc1` [Compound 22, 4-methyl-N-(quinolin-6-ylmethyl)benzenesulfonamide] was run?
The value was 70.8% of control.

These compounds were tested on MCF10A (non-cancerous breast) in the same assay as above. Settings: Homo sapiens, MCF-10A, 2 h; compound alone, 100 uM, two hour incubation, control DMSO; read-out: POC (percent of control) MCF10A.
Type: cell-based

`Cc1ccc(S(=O)(=O)NCc2ccc3ncccc3c2)cc1` [Compound 22, 4-methyl-N-(quinolin-6-ylmethyl)benzenesulfonamide] was tested. Which activity at 100 µM did it give?
Its activity at 100 µM is 105%.

Same assay, conditions: compound 100 uM + 2DG (about 10-20 mM), two hour incubation

Which “POC (percent of control) MCF10A” value does the source give for `Cc1ccc(S(=O)(=O)NCc2ccc3ncccc3c2)cc1` [Compound 22, 4-methyl-N-(quinolin-6-ylmethyl)benzenesulfonamide] here?
The value was 70.2% of control.

Same assay, conditions: compound 100 uM + rotenone (approximately 1.25 μM), two hour incubation

How did the “POC (percent of control) MCF10A” value turn out when `Cc1ccc(S(=O)(=O)NCc2ccc3ncccc3c2)cc1` [Compound 22, 4-methyl-N-(quinolin-6-ylmethyl)benzenesulfonamide] was run?
The value was 96.9% of control.

What follows are compounds tested on MDA-MB (breast cancer) in the same assay as above. Settings: 2 h; compound alone, 100 uM, two hour incubation, control DMSO; read-out: POC (percent of control) MDA-MB.
Type: cell-based

Which activity at 100 µM does the source give for `Cc1ccc(S(=O)(=O)NCc2ccc3ncccc3c2)cc1` [Compound 22, 4-methyl-N-(quinolin-6-ylmethyl)benzenesulfonamide] here?
The activity at 100 µM was 96.7%.

Same assay, conditions: compound 100 uM + 2DG (about 10-20 mM), two hour incubation

How did the “POC (percent of control) MDA-MB” value turn out when `Cc1ccc(S(=O)(=O)NCc2ccc3ncccc3c2)cc1` [Compound 22, 4-methyl-N-(quinolin-6-ylmethyl)benzenesulfonamide] was run?
Its value is 86.5% of control.

Same assay, conditions: compound 100 uM + rotenone (approximately 1.25 μM), two hour incubation

`Cc1ccc(S(=O)(=O)NCc2ccc3ncccc3c2)cc1` [Compound 22, 4-methyl-N-(quinolin-6-ylmethyl)benzenesulfonamide] was tested. Which “POC (percent of control) MDA-MB” value did it give?
Its value is 87.1% of control.

Each compound was assayed on PC3 (prostate cancer) in the same assay as above. Settings: 2 h; compound alone, 100 uM, two hour incubation, control DMSO; read-out: POC (percent of control) PC3.
Type: cell-based

For `Cc1ccc(S(=O)(=O)NCc2ccc3ncccc3c2)cc1` [Compound 22, 4-methyl-N-(quinolin-6-ylmethyl)benzenesulfonamide], which activity at 100 µM is on record?
The activity at 100 µM was 93%.

Same assay, conditions: compound 100 uM + 2DG (about 10-20 mM), two hour incubation

`Cc1ccc(S(=O)(=O)NCc2ccc3ncccc3c2)cc1` [Compound 22, 4-methyl-N-(quinolin-6-ylmethyl)benzenesulfonamide] was tested. Which “POC (percent of control) PC3” value did it give?
Its value is 94.5% of control.

Same assay, conditions: compound 100 uM + rotenone (approximately 1.25 μM), two hour incubation

For `Cc1ccc(S(=O)(=O)NCc2ccc3ncccc3c2)cc1` [Compound 22, 4-methyl-N-(quinolin-6-ylmethyl)benzenesulfonamide], which “POC (percent of control) PC3” value is on record?
The value was 108.2% of control.
